Measurements published in ChEMBL document CHEMBL1201862, “PubChem BioAssay data set” (2004).
Activity calls are given as the source filed them.

What was measured:
[1] = biological target: Cystic fibrosis transmembrane conductance regulator/Golgi-associated PDZ and coiled-coil motif-containing protein (Homo sapiens, UniProt P13569+Q9HD26); test: CAL PDZ peptide-binding inhibitors, dose response, biochemical, fluorescence polarization, Cerulean-tagged CAL PDZ, cherry-picks (AID 504773)
[2] = CAL PDZ domain peptide-binding inhibitors, dose response, biochemical, fluorescence polarization, untagged CAL PDZ, cherry-pick (AID 602267); type: functional
[3] = system: Streptococcus sp. 'group A'; test: growth inhibition of control SK(-) GAS strain, dose response, counter-screen for streptokinase expression inhibitor project, luminescence, kanamycin, BacTiterGlo, confirmation (AID 1900); type: functional, organism-based

Chain of Cystic fibrosis transmembrane conductance regulator/Golgi-associated PDZ and coiled-coil motif-containing protein (P13569 whole entry, other chains not shown, the tested form may be a part): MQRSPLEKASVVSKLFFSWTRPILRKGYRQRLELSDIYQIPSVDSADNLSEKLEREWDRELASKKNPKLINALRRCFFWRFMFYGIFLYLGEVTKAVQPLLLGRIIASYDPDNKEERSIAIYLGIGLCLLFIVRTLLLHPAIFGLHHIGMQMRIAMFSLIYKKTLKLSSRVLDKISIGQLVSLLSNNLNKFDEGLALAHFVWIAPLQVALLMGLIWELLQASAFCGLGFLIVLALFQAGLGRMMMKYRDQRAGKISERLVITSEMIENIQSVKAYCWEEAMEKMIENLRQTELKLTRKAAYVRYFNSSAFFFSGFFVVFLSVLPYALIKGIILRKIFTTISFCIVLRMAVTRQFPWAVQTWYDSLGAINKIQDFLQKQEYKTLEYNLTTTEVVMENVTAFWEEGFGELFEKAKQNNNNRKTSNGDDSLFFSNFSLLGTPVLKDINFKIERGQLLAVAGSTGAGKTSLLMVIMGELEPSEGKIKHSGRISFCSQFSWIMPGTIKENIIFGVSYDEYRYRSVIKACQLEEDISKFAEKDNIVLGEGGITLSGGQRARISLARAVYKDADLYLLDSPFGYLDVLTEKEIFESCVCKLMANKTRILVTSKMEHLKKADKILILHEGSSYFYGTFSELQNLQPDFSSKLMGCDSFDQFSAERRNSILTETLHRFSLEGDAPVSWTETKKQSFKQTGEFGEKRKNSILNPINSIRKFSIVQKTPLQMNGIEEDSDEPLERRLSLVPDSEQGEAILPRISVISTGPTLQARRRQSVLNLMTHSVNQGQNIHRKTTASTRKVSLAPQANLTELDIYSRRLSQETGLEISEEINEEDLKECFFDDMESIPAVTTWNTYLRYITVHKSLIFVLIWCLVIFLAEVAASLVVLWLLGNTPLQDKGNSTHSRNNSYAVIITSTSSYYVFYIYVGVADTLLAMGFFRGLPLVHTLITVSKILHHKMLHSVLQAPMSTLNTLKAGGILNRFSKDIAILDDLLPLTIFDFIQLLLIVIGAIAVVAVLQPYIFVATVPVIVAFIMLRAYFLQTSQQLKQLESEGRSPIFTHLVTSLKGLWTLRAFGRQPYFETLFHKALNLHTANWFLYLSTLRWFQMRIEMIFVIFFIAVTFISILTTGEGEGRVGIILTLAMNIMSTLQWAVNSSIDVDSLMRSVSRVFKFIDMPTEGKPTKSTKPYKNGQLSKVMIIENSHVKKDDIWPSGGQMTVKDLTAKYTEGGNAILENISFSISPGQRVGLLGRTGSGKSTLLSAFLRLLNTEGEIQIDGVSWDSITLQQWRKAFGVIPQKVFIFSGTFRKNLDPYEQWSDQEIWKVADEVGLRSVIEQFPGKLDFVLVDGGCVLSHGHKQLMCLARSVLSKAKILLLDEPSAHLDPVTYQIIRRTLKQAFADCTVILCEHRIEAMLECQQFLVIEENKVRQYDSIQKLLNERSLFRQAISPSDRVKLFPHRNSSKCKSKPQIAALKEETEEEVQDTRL

Row | SMILES | AC50 [1] | AC50 [2] | EC50 [3]
1 | O=c1c2ccccc2nc(/C=C/c2cccnc2)n1Cc1ccccc1 | 23.5 µM (active) | 91.1 µM (active) | 
2 | O=C(O)c1ccc(N/N=C/c2ccc(OC(=O)c3ccccc3Cl)cc2)cc1 |  |  | 2.91 µM (active)
